Laboratory results from PMC6006164, “Natural cyclopeptide RA-V inhibits the NF-κB signaling pathway by targeting TAK1” (Cell Death & Disease, 2018).

How the values were obtained:
[1] = test system: NF-κB activation; experiment: Bioluminescence imaging of NF-κB-luciferase transgenic mice in the endotoxin shock model; format: in vivo; details: RA-V micelles 0.25 mg/kg i.v. 52, 28, 4 h before LPS 10 mg/kg i.p.; n = 4; particularly 2 h after LPS
Procedure: Fig. 2 RA-V prevents endotoxic shock and inhibits NF-κB activation in vivo. a–c RA-V prevents endotoxic shock in vivo. Mice (n = 6 per group) were intravenously injected with RA-V micelles (0.25 mg/kg body weight) or control micelles 52, 28, and 4 h before an intraperitoneal injection of LPS (10 mg/kg). One hour later, the relative levels of IL-6 and TNF-α mRNAs in the liver were assessed by quantitative RT-PCR (a), the serum IL-6 and TNF-α levels were quantified by ELISA (b), and the expression of p65 and IκBα phosphorylation in the liver were measured by immunoblot analysis c. d RA-V improved animal survival. Mice (n = 20 per group) were intravenously injected with RA-V micelles (0.25 mg/kg body weight) or control micelles 52, 28, and 4 h before intraperitoneal injection of LPS (20 mg/kg). Animal survival was recorded in 2–3 hours intervals. e RA-V inhibits NF-κB activation in vivo. […] The bioluminescent signals from all of the mice were detected and quantified. […]
The bioluminescence imaging of the NF-κB-luciferase transgenic mice was performed using a Xenogen IVIS Spectrum in vivo imaging system (Caliper Life Sciences). […] After 15 min, the in vivo bioluminescence was measured at the indicated times. The bioluminescent signals from all of the mice were detected and quantified.

[2] = test system: NF-κB-regulated reporter; experiment: NF-κB reporter induced by transfected TRAF2, MyD88, IKKβ or p65 plasmid; format: cell-based; details: HEK293T; RA-V 48 h
Procedure: To determine where RA-V acts in this pathway, TRAF2, MyD88, IKKβ, or p65 plasmid was transiently transfected into HEK293T cells together with the 5 × κB-lucieferase and pTK-Renilla reporters. […] Western blots were performed to investigate the effect of RA-V on NF-κB-associated proteins in HEK293T cells transfected with the TRAF2, MyD88, or IKKβ plasmid. […] Moreover, we used a computational method to predict where RA-V is likely to act in this pathway.
Fig. 3 RA-V represses NF-κB activation upstream of the IKK protein complex. a RA-V inhibited the TRAF2- and MyD88-induced expression of the NF-κB reporter in a dose-dependent manner. The indicated plasmids were transfected into HEK293T cells together with the 5 × κB-luciferase and pTK-Renilla reporters. Twenty-four hours after transfection, the cells were incubated with various concentrations of RA-V for 48 h before luciferase assays were performed. b RA-V inhibited TRAF2- and MyD88-induced p65 phosphorylation and IκBα phosphorylation in a dose-dependent manner. HEK293T cells were transfected with TRAF2, MyD88, IKKβ, or p65 for 24 h and then treated with various concentrations of RA-V for 48 h. The cell lysates were immunoblotted with the indicated antibodies. c RA-V likely exerts its inhibitory activity on the NF-κB pathway by acting on the TRAF6-TAK1–TAB1/2 complex. […]

[3] = test system: IL-8 production; experiment: TNF-α-induced IL-8 production, ELISA; format: cell-based; details: HeLa; RA-V 12 h, 10 ng/mL TNF-α 2 h; ELISA of supernatant; dose-dependent
Procedure: Fig. 1 RA-V inhibits TNF-α- and LPS-induced activation of NF-κB. a Chemical structure of RA-V. b RA-V inhibited the NF-κB signaling pathway in a dose-dependent manner. HEK293T or HeLa cells were transfected with the 5 × κB-luciferase and pTK-Renilla reporters. Twenty-four hours after transfection, the cells were incubated with various concentrations of RA-V for 6 h, and then treated with 10 ng/mL TNF-α for 2 h before the luciferase activity assay and MTT assay. c RA-V reduced TNF-α-induced expression of NF-κB target genes. HEK293T or HeLa cells were treated with various concentrations of RA-V for 24 h and stimulated with 10 ng/mL TNF-α for 2 h. The expression of the NF-κB target genes, IL-8, MCP-1, and E-selectin was measured by quantitative RT-PCR and normalized to GADPH expression. d RA-V inhibited TNF-α-induced p65 phosphorylation, IκBα phosphorylation and IκBα degradation. HEK293T or HeLa cells were incubated with various concentrations of RA-V for 24 h and treated with 10 ng/mL TNF-α for 10 min. The cell lysates were prepared and subjected to western blot analysis with the indicated antibodies. e RA-V inhibited TNF-α-induced IL-8 production. […] The expression of IL-6 was measured. h RA-V inhibited LPS-induced p65 phosphorylation, IκBα phosphorylation. […] The protein expression was measured. i RA-V inhibited LPS-induced IL-6 production. […] The expression of IL-6 was measured.

RA-V was tested, and the “NF-κB activation, in vivo bioluminescence” value [1] was “inhibited NF-κB activation”, the “NF-κB-regulated reporter expression in cells transfected with IKKβ or p65” value [2] was “no effect” and the “NF-κB-regulated reporter expression in cells transfected with TRAF2 or MyD88” value [2] was “dose-dependently suppressed”. For the same substance, the “TNF-α-induced production of IL-8” value [3] was “inhibited”.
